From article PMC13388172 (Frontiers in Pharmacology, 2026)

Experiment: Therapeutic drug monitoring of serum ETI components and metabolites (UPLC-MS/MS), hourly for 9 hours after ingestion
Type: in vivo
Conditions: female, human, oral, full dose ETI, one pwCF, sampled hourly for 9 hours after ingestion, read-out: Area under the curve (AUC), serum
Protocol: The analytes of interest were assayed using an ultra-performance liquid chromatography tandem mass spectrometry method. In the concentration range from 0.01 to 20.0 mg/L, calibration curves were linear with a correlation coefficient >0.999 for all analytes.
Repeat TDM was conducted after a month on this reduced dosing strategy as this was felt likely to provide adequate time for steady-state concentrations to be achieved.

An AUC of 92600 ng·h/mL was found for `CC(C)(CO)c1cc2cc(NC(=O)C3(c4ccc5c(c4)OC(F)(F)O5)CC3)c(F)cc2n1C[C@@H](O)CO` [tezacaftor] in this work.
